From patent publication US20120129811A1, “TRICYCLIC INHIBITORS OF PRO-MATRIX METALLOPROTEINASE ACTIVATION” (priority 2010, published 2012)
Structures can show the parent of a compound that is named as a salt.

How the values were obtained:
[1] = target: T1, proMMP9(20-445;ΔFnII) (SEQ ID NO:6) (Homo sapiens, UniProt P14780, DEL216-390); assay: ThermoFluor binding assay with proMMP9(20-445;ΔFnII)
T1 construct: start methionine (N); made in house; host or cells: E. coli BL21(DE3) RIL
T1 sequence (P14780 with tags, fused parts or gaps DEL216-390): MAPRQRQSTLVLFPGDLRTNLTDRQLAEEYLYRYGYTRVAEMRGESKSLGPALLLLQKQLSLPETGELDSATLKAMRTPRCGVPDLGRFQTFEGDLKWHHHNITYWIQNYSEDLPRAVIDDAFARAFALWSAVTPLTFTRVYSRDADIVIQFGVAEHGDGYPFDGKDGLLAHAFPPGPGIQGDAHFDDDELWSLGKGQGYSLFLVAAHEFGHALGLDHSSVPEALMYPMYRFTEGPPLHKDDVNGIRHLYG
How it was run: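 Protein thermal stability was measured with 2.8 μM proMMP9(20-445;ΔFnII) and 50 μM 1,8-ANS in 50 mM HEPES pH 7.0, 100 mM NaCl, 0.001% Tween-20, 2.5 mM MgCl2, 300 μM CaCl2, across serial compound dilutions. Samples were heated 40–90° C at 1° C/min with fluorescence read at 500 nm. Tm was fitted, and binding was derived from thermodynamic parameters obtained by DSC and ThermoFluor.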

[2] = target: T2, full-length proMMP9(1-707) activation by catalytic MMP3 (Homo sapiens, UniProt P14780, R574P); assay: proMMP9/MMP3 P126 Activation Assay; type: biochemical
T2 construct: made in house; host or cells: proMMP9: HEK293 (secreted); MMP3: E. coli
Protocol: proMMP9/MMP3 P126 Activation Assay
The reaction volume was 50 μL. […] Reactivity of residual MMP3 towards P-126 substrate was minimal under these conditions.

[3] = target: T3, proMMP9(67-444;ΔFnII) (SEQ ID NO:5) (Homo sapiens, UniProt P14780, DEL216-390); assay: ThermoFluor binding assay with proMMP9(67-444;ΔFnII)
T3 construct: start methionine (N); made in house; host or cells: E. coli BL21(DE3) RIL
T3 sequence (P14780 with tags, fused parts or gaps DEL216-390): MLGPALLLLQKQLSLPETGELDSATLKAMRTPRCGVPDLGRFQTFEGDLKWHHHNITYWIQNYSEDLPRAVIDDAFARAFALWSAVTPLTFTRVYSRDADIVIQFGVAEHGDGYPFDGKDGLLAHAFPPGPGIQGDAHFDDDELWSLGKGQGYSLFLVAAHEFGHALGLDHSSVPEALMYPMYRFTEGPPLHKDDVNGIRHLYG
How it was run: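 Thermal shift of 3.5 μM proMMP9(67-444;ΔFnII), desalted beforehand, with 50 μM 1,8-ANS in 50 mM HEPES pH 7.0, 100 mM NaCl, 2.5 mM MgCl2, 300 μM CaCl2, 0.001% Tween-20. Heated 40–90 °C at 1 °C/min, fluorescence read at 500 nm; binding fitted from Tm shifts using DSC- and ThermoFluor-derived unfolding parameters.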

T2 sequence (P14780 20-707 R574P): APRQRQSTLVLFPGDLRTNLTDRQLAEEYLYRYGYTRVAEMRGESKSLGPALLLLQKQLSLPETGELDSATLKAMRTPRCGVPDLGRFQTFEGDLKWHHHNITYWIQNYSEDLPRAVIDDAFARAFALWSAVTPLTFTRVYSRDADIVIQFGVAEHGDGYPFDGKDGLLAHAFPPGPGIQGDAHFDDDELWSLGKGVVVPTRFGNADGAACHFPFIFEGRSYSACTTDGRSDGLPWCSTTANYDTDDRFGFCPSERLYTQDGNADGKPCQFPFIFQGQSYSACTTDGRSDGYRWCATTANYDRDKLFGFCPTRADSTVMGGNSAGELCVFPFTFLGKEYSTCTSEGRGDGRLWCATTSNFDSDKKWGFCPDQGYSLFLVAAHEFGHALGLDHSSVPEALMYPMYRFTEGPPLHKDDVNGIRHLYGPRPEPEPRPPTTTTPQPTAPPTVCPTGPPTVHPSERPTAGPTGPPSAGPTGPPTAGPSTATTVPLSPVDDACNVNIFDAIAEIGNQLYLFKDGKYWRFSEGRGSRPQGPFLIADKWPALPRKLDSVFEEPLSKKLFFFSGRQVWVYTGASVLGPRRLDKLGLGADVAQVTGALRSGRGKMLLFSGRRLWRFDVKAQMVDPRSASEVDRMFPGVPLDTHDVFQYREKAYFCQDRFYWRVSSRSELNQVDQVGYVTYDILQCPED

Kd [1] [nM] | IC50 [2] [nM] | Kd [3] [nM] | Compound
3400 | 480 | 2600 | CCn1c(C)nc2ccc3sc(Nc4ccccc4OC)nc3c21 [Example 120, (8-Ethyl-7-methyl-8H-imidazo[4′,5′:3,4]benzo[2,1-d]thiazol-2-yl)-(2-methoxy-phenyl)-amine.TFA]
5700 | 470 | 2800 | COc1ccccc1Nc1nc2c(ccc3nc(C)n(C)c32)s1 [Example 124, (7,8-Dimethyl-8H-imidazo[4′,5′:3,4]benzo[2,1-d]thiazol-2-yl)-(2-methoxy-phenyl)-amine.TFA]
3100 | 260 | 600 | COc1ccc(F)cc1Nc1nc2c(ccc3nc(C)n(C)c32)s1 [Example 125, (7,8-Dimethyl-8H-imidazo[4′,5′:3,4]benzo[2,1-d]thiazol-2-yl)-(5-fluoro-2-methoxy-phenyl)-amine.TFA]
4300 | 270 | 980 | COc1ccc(F)cc1Nc1nc2c(ccc3ncn(C)c32)s1 [Example 127, (5-Fluoro-2-methoxy-phenyl)-(8-methyl-8H-imidazo[4′,5′:3,4]benzo[2,1-d]thiazol 2-yl)-amine.TFA]
> 95000 | 830 | 1200 | COc1ccc(S(N)(=O)=O)cc1Nc1nc2c(ccc3ncn(C)c32)s1 [Example 130, 4-Methoxy-3-(8-methyl-8H-imidazo[4′,5′:3,4]benzo[2,1-d]thiazol-2-ylamino)-benzenesulfonamide.TFA]
> 95000 | 590 | 2000 | CC(C)Oc1ccc(S(N)(=O)=O)cc1Nc1nc2c(ccc3ncn(C)c32)s1 [Example 131, 4-Isopropoxy-3-(8-methyl-8H-imidazo[4′,5′:3,4]benzo[2,1-d]thiazol-2-ylamino)-benzenesulfonamide.TFA]
> 95000 | 1400 | 26000 | COc1ccccc1Nc1nc2c(ccc3ncn(C)c32)s1 [Example 132, (2-Methoxy-phenyl)-(8-methyl-8H-imidazo[4′,5′:3,4]benzo[2,1-d]thiazol-2-yl)-amine.TFA]
> 95000 | 270 | 640 | COc1ccc(S(C)(=O)=O)cc1Nc1nc2c(ccc3ncn(C)c32)s1 [Example 135, (5-Methanesulfonyl-2-methoxy-phenyl)-(8-methyl-8H-imidazo[4′,5′:3,4]benzo[2,1-d]thiazol-2-yl)-amine.TFA]

Further lines, the compound ahead of its results:

Compound | Kd [1] [nM] | IC50 [2] [nM] | Kd [3] [nM]
CCCn1ncc2c3nc(Nc4cc(S(C)(=O)=O)ccc4OC)sc3ccc21 [Example 111, (5-Methanesulfonyl-2-methoxy-phenyl)-(6-propyl-6H-3-thia-1,6,7-triaza-as-indacen-2-yl)-amine.TFA] | 3100 | 370 | 1700
COc1ccc(C#N)cc1Nc1nc2c(ccc3c2cnn3C)s1 [Example 112, 4-Methoxy-3-(6-methyl-6H-3-thia-1,6,7-triaza-as-indacen-2-ylamino)-benzonitrile.TFA] | > 95000 | 160 | 7000
Cn1ncc2c3nc(Nc4cc(C(N)=O)ccc4OC(F)(F)F)sc3ccc21 [Example 113, 3-(6-Methyl-6H-3-thia-1,6,7-triaza-as-indacen-2-ylamino)-4-trifluoromethoxy-benzamide.TFA] | 140 | 250 | 1500
NC(=O)c1ccc(OC(F)(F)F)c(Nc2nc3c(ccc4cnccc43)s2)c1 [Example 114, 3-(Thiazolo[4,5-f]isoquinolin-2-ylamino)-4-trifluoromethoxy-benzamide.TFA] | 1200 | ~2200 | 4600
CCn1c(C)nc2ccc3sc(Nc4cc(S(N)(=O)=O)ccc4OC(C)C)nc3c21 [Example 118, 3-(8-Ethyl-7-methyl-8H-imidazo[4′,5′:3,4]benzo[2,1-d]thiazol-2-ylamino)-4-isopropoxy-benzenesulfonamide.TFA] | 290 | 510 | 860
Cc1nc2ccc3sc(Nc4cc(S(N)(=O)=O)ccc4OC(C)C)nc3c2n1C [Example 119, 3-(7,8-Dimethyl-8H-imidazo[4′,5′:3,4]-benzo[2,1-d]thiazol-2-ylamino)-4-isopropoxy-benzenesulfonamide.TFA] | 910 | 500 | 1200
CCn1c(C)nc2ccc3sc(Nc4cc(F)ccc4OC)nc3c21 [Example 121, (8-Ethyl-7-methyl-8H-imidazo[4′,5′:3,4]benzo[2,1-d]thiazol-2-yl)-(5-fluoro-2-methoxy-phenyl)-amine.TFA] | 4000 | 310 | 860
CCn1c(C)nc2ccc3sc(Nc4cc(S(N)(=O)=O)ccc4OC(F)(F)F)nc3c21 [Example 122, 3-(8-Ethyl-7-methyl-8H-imidazo[4′,5′:3,4]benzo[2,1-d]thiazol-2-ylamino)-4-trifluoromethoxy-benzenesulfonamide.TFA] | 1200 | 650 | 340
COc1ccc(S(N)(=O)=O)cc1Nc1nc2c(ccc3nc(C)n(C)c32)s1 [Example 123, 3-(7,8-Dimethyl-8H-imidazo[4′,5′:3,4]-benzo[2,1-d]thiazol-2-ylamino)-4-methoxy-benzenesulfonamide.TFA] | 5300 | 810 | 4700
Cc1nc2ccc3sc(Nc4cc(S(N)(=O)=O)ccc4OC(F)(F)F)nc3c2n1C [Example 126, 3-(7,8-Dimethyl-8H-imidazo[4′,5′:3,4]-benzo[2,1-d]thiazol-2-ylamino)-4-trifluoromethoxy-benzenesulfonamide.TFA] | > 95000 | 460 | 2200
Cn1cnc2ccc3sc(Nc4cc(S(N)(=O)=O)ccc4OC(F)(F)F)nc3c21 [Example 128, 3-(8-Methyl-8H-imidazo[4′,5′:3,4]benzo[2,1-d]thiazol-2-ylamino)-4-trifluoromethoxy-benzenesulfonamide.TFA] | 4900 | 680 | 1500
CCn1c(C)nc2ccc3sc(Nc4cc(S(N)(=O)=O)ccc4OC)nc3c21 [Example 129, 3-(8-Ethyl-7-methyl-8H-imidazo[4′,5′:3,4]benzo[2,1-d]thiazol-2-ylamino)-4-methoxy-benzenesulfonamide.TFA] | 1200 | 420 | 520
CCn1c(C)nc2ccc3sc(Nc4cc(S(C)(=O)=O)ccc4OC)nc3c21 [Example 133, (8-Ethyl-7-methyl-8H-imidazo[4′,5′:3,4]benzo[2,1-d]thiazol-2-yl)-(5-methanesulfonyl-2-methoxy-phenyl)-amine.TFA] | 1300 | 280 | 310
COc1ccc(S(C)(=O)=O)cc1Nc1nc2c(ccc3nc(C)n(C)c32)s1 [Example 134, (7,8-Dimethyl-8H-imidazo[4′,5′:3,4]benzo[2,1-d]thiazol-2-yl)-(5-methanesulfonyl-2-methoxy-phenyl)-amine.TFA] | 1600 | 260 | 900
Cc1nc2ccc3sc(Nc4cc(S(N)(=O)=O)ccc4OC(C)C)nc3c2n1CC(F)(F)F [Example 136, 4-Isopropoxy-3-[7-methyl-8-(2,2,2-trifluoro-ethyl)-8H-imidazo[4′,5′:3,4]benzo[2,1-d]thiazol-2-ylamino]-benzenesulfonamide.TFA] | 770 | 1100 | 590
CC(C)Oc1ccc(S(N)(=O)=O)cc1Nc1nc2c(ccc3ncn(CC(F)(F)F)c32)s1 [Example 137, 4-Isopropoxy-3-[8-(2,2,2-trifluoro-ethyl)-8H-imidazo[4′,5′:3,4]-benzo[2,1-d]thiazol-2-ylamino]-benzenesulfonamide.TFA] | 440 | 1100 | 630
COc1ccc(S(C)(=O)=O)cc1Nc1nc2c(ccc3nc(C)n(CC(F)(F)F)c32)s1 [Example 138, (5-Methanesulfonyl-2-methoxy-phenyl)-[7-methyl-8-(2,2,2-trifluoro-ethyl)-8H-imidazo[4′,5′:3,4]benzo[2,1-d]thiazol-2-yl]-amine.TFA] | 690 | 560 | 480
CCn1c(C)nc2ccc3sc(Nc4cc(F)ccc4OC(C)C)nc3c21 [Example 139, (8-Ethyl-7-methyl-8H-imidazo[4′,5′:3,4]benzo[2,1-d]thiazol-2-yl)-(5-fluoro-2-isopropoxy-phenyl)-amine.TFA] | > 95000 | 330 | 960
